In US11066692B2, “Real-time monitoring” (PROMEGA CORPORATION, priority 2012, dated 2021):

Tests used:
[1] = Stability of pro-furimazine substrate PBI-4600 in cell culture media (HPLC purity); assay type: physicochemical; conditions: 50 μM in RPMI cell culture media, room temperature or 37° C., up to 190 hours
Description: PBI-4600 (50 μM) was incubated in RPMI cell culture media at room temperature (RT) or 37° C. for increasing time points, up to 190 hours. HPLC analysis was performed to determine the purity of PBI-4600 at various time points.

Cardiomyocyte cells = assay: Real-time measuring of drug induced changes in viability; assay type: cell-based; conditions: 200 μg/ml final, after multiple days of cell growth; 40 uM PBI-4600, 100 ng/ml NANOLUC
Description: Cardiomyocyte cells were plated and grown in media containing 40 uM PBI-4600 pro-substrate and 100 ng/ml NANOLUC luciferase protein sensor in a 37° C., 5% CO2 incubator. At various time points, luminescence was monitored on a Tecan M1000 plate reader. After multiple days of cell growth, digitonin was added to a final concentration of 200 μg/ml. Luminescence was read continually, starting immediately after digitonin addition.

[2] = tested on: reactive oxygen species (ROS) in A549 cells; assay: Real-time monitoring of reactive oxygen species (ROS); assay type: cell-based; conditions: 200 μM, 10, 25 or 50 μM PBI-4759, 40 ng/ml NANOLUC
Description: A549 cells were plated at 1,000 cells/well into wells of a 384-well plate and incubated overnight. Then, either 10, 25, or 50 μM of a pro-furimazine hydrogen peroxide substrate, PBI-4759, and 40 ng/ml NANOLUC luciferase protein sensor were added to the cells. Menadione (200 μM), a known ROS inducer, or a vehicle control (DMSO) was added to the cells. Luminescence was monitored over time using a Tecan M1000 plate reader.

[3] = tested on: caspase activation in A549 cells; assay: Real-time monitoring of caspase activation; assay type: cell-based; conditions: 4 μM final concentration, 50 μM PBI-3741, 40 ng/ml NANOLUC
Description: A549 cells were plated at 1,000 cells/well into wells of a 384-well assay plate. 50 μM PBI-3741 (a pro-furimazine caspase substrate) and 40 ng/ml NANOLUC luciferase enzyme were added to the cells. To induce apoptosis, staurosporine was added to the cells at a 4 μM final concentration. The induction of apoptosis and activation of caspase were measured in real-time.

A549 cells = assay: Measuring cell death in real-time; assay type: cell-based; conditions: 1% final concentration, A549 cells 1,000 cells/well; 40 μM PBI-4600, 100 ng/ml NANOLUC
Description: A549 cells were plated into wells of a 384-well plate at 1,000 cells/well in the presence of 40 μM PBI-4600 pro-substrate and 100 ng/ml NANOLUC luciferase protein sensor. The cells were incubated and the luminescence signal was monitored at various time points on a Tecan M1000 plate reader. Triton X-100 was then added to a final concentration of 1%, and compared to control cells that received media only. Luminescence was continually monitored.

[4] = Protein sensor stability in cell culture; assay type: physicochemical; conditions: 40 ng/ml in A549 cell culture with 50 μM PBI-4600; signal compared with freshly added sensor
Description: A549 cells were plated at 250 cells/well into wells of a 384-well assay plate. 50 μM PBI-4600 pro-substrate and 40 ng/ml NANOLUC luciferase protein sensor were added to the cell culture and incubated for 72 hours. After incubation, 40 ng/ml NANOLUC luciferase protein sensor was added to the cell culture, and the signal was monitored 1.5 hours later.

## CC1=C(C)C(=O)C(C(C)(C)CC(=O)N(C)CCN(C)C(=O)Oc2c(Cc3ccco3)nc3c(Cc4ccccc4)nc(-c4ccccc4)cn23)=C(C)C1=O [PBI-4600]
[1]
  purity of PBI-4600 (HPLC) after incubation: greater than 90%

## C[C@@H]1CC[C@@]2(OC1)O[C@H]1[C@@H](O)[C@H]3[C@@H]4CC[C@H]5C[C@@H](O[C@@H]6O[C@H](CO)[C@H](O[C@@H]7O[C@H](CO)[C@@H](O)[C@H](O[C@@H]8OC[C@@H](O)[C@H](O)[C@H]8O)[C@H]7O[C@@H]7O[C@H](CO)[C@H](O)[C@H](O[C@@H]8O[C@H](CO)[C@@H](O)[C@H](O)[C@H]8O)[C@H]7O)[C@H](O)[C@H]6O)[C@H](O)C[C@]5(C)[C@H]4CC[C@]3(C)[C@H]1[C@@H]2C [digitonin]
Cardiomyocyte cells
  change in luminescence signal (cell viability) after addition: rapid decrease in signal

## CC1=CC(=O)c2ccccc2C1=O [menadione, Menadione]
[2]
  time at which maximum luminescence signal was reached after addition: 5 h

## CN[C@@H]1C[C@H]2O[C@@](C)([C@@H]1OC)n1c3ccccc3c3c4c(c5c6ccccc6n2c5c31)C(=O)NC4 [staurosporine]
[3]
  change in luminescence (caspase activation) during treatment: increase in luminescence

## Triton X-100
A549 cells
  change in luminescence signal (cell viability) after addition: rapid decrease in signal

B1: NANOLUC luciferase: modified, enhanced luciferase enzyme from Oplophorus, Promega Corporation, SEQ ID NO: 1 (protein)
chain: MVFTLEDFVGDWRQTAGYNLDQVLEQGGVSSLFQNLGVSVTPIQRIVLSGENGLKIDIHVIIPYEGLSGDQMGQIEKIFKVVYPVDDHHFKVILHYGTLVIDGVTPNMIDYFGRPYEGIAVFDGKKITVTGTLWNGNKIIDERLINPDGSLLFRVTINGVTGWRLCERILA
[4]
  time stable in cell culture conditions: at least 72 h
